As a reminder, the Ki is the equilibrium dissociation constant of an inhibitor or competing ligand from its target.

This note sets out measurements from patent US7858630B2, “D3 and 5-HT2A receptor modulators” (Hoffmann-La Roche Inc., priority 2008, dated 2010).

Structures are written as SMILES.

In test [1] the target is T1, human dopamine D3 receptor (Homo sapiens, UniProt P35462).
T1 construct: expressed in transfected cells; host or cells: HEK-293 EBNA cells, transient transfection; membrane preparation
T1 sequence (P35462 whole entry): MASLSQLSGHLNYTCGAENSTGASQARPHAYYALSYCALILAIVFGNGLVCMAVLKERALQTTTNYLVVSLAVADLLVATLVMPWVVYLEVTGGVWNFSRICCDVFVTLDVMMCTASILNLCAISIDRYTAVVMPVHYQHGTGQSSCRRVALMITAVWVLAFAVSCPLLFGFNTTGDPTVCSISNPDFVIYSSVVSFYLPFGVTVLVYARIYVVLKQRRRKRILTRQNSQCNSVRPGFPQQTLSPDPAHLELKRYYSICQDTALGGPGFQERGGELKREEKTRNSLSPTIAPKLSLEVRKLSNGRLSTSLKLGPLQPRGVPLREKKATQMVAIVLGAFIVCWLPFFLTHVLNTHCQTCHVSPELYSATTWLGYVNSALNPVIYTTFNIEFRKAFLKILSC
In words: Radioligand binding ([3H]-spiperone) to membranes of HEK-293 EBNA cells expressing human D3 receptor. Particulars: human D3, 0.5 nM [3H]-spiperone, HEK-293 EBNA membranes, 1 h at RT. The essentials:
(§1)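 Membranes from HEK-293 EBNA cells transiently transfected with the receptor were incubated 1 h at RT with ten test concentrations (10 μM–0.1 nM) and ~0.7 nM [3H]-spiperone (D2), 0.5 nM [3H]-spiperone (D3) or 1.1 nM [3H]-ketanserin (5-HT2A). Nonspecific binding was set with 10 μM spiperone, bound radioactivity was read by filtration and scintillation, and Ki was taken from IC50 via Cheng-Prusoff.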

Test [2] has as its target T2, human serotonin 5-HT2A receptor (Homo sapiens, UniProt P28223).
T2 construct: expressed in transfected cells; host or cells: HEK-293 EBNA cells, transient transfection; membrane preparation
Briefly: Radioligand binding ([3H]-ketanserin) to membranes of HEK-293 EBNA cells expressing human 5-HT2A receptor. The following applies: 1.1 nM [3H]-ketanserin, HEK-293 EBNA membranes, 1 h at RT. The essentials: as §1

For test [3], the target named is T3, human dopamine D2 receptor (Homo sapiens, UniProt P14416).
T3 construct: expressed in transfected cells; host or cells: HEK-293 EBNA cells, transient transfection; membrane preparation
T3 sequence (P14416 whole entry): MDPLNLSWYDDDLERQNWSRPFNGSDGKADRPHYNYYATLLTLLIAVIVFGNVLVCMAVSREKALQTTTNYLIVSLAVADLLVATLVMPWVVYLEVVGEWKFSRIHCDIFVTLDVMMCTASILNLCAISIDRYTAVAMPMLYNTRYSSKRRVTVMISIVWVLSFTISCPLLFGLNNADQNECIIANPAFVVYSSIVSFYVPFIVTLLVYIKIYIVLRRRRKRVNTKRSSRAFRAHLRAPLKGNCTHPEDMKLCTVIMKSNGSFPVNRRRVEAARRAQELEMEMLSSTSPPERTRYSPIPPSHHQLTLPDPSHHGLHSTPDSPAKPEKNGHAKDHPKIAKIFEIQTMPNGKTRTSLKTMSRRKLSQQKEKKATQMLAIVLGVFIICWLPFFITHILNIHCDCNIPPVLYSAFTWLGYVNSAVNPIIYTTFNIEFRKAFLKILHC
In words: Radioligand binding ([3H]-spiperone) to membranes of HEK-293 EBNA cells expressing human D2 receptor. Particulars: human D2, 0.7 nM [3H]-spiperone, HEK-293 EBNA membranes, 1 h at RT. The essentials:
as §1

T2 sequence (P28223 whole entry): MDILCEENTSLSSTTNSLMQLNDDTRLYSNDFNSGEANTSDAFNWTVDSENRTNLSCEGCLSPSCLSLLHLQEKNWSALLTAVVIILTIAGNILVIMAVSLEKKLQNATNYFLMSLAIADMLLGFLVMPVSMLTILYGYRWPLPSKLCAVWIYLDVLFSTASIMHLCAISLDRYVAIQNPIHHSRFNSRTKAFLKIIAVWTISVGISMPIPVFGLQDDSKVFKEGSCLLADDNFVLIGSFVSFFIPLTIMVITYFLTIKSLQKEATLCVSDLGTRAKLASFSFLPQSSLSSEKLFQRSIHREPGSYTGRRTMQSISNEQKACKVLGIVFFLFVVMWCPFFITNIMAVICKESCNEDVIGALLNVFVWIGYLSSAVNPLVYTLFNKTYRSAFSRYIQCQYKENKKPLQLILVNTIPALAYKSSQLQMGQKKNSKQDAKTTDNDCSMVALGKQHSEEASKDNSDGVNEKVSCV

With `COCCC(=O)N[C@H]1CC[C@H](CCN2CCN(c3noc4ccc(F)cc34)CC2)CC1` [Example 5, N-trans-(4-{2-{4-(5-Fluoro-benzo[d]isoxazol-3-yl)-piperazin-1-yl]-ethyl}-cyclohexyl)-3-methoxy-propionamide], the Ki in test [1] worked out at 2.56 nM; in test [2], 31.6 nM; in test [3] it was 725 nM.
The matching figures for `COC(CCC(=O)N[C@H]1CC[C@H](CCN2CCN(c3noc4ccc(F)cc34)CC2)CC1)OC` [Example 28, N-trans-(4-{2-[4-(5-Fluoro-benzo[d]isoxazol-3-yl)-piperazin-1-yl]-ethyl}-cyclohexyl)-4,4-dimethoxy-butyramide]: 8.78 nM, 22.8 nM and 918 nM.
`O=C(C[C@H]1C[C@H](CO)C1)N[C@H]1CC[C@H](CCN2CCN(c3noc4ccc(F)cc34)CC2)CC1` [Example 20, N-trans-(4-{2-[4-(5-Fluoro-benzo[d]isoxazol-3-yl)-piperazin-1-yl]-ethyl}-cyclohexyl)-2-trans-(3-hydroxymethyl-cyclobutyl)-acetamide]: the Ki is 5.55 nM in test [1], 19.3 nM in test [2] and 386 nM in test [3].
In the same order, the values of `COC1CCC(C(=O)N[C@H]2CC[C@H](CCN3CCN(c4noc5cc(F)c(F)cc45)CC3)CC2)CC1` (stereo partly drawn) [Example 66, 4-Methoxy-cyclohexanecarboxylic acid N-trans(4-{2-[4-(5,6-difluoro-benzo[d]isoxazol-3-yl)-piperazin-1-yl]-ethyl}-cyclohexyl)-amide] are 26.3 nM, 6.94 nM and 2930 nM.
`COCCC(=O)N[C@H]1CC[C@H](CCN2CCN(c3noc4cc(F)c(C)cc34)CC2)CC1` [Example 108, N-trans-(4-{2-[4-(6-Fluoro-5-methyl-benzo[d]isoxazol-3-yl)-piperazin-1-yl]-ethyl}-cyclohexyl)-3-methoxy-propionamide]: the Ki in test [1] turned out to be 8 nM; in test [2], 18.9 nM; in test [3] it was 297 nM.
For the compound `CO[C@H]1CC[C@H](CC(=O)N[C@H]2CC[C@H](CCN3CCN(c4noc5cc(C)ccc45)CC3)CC2)CC1` [Example 100, 2-trans-(4-Methoxy-cyclohexyl)-N-trans-(4-{2-[4-(6-methyl-benzo[d]isoxazol-3-yl)-piperazin-1-yl]-ethyl}-cyclohexyl)-acetamide], the Ki came out at 17.7 nM in test [1], 5.3 nM in test [2] and 494 nM in test [3].
In the same order, the values of `CO[C@@H]1CC[C@@H](CC(=O)N[C@H]2CC[C@H](CCN3CCN(c4noc5ccccc45)CC3)CC2)C1` (relative stereo) [Example 3, N-trans-{4-[2-(4-Benzo[d]isoxazol-3-yl-piperazin-1-yl)-ethyl]-cyclohexyl]-2-trans-(3-methoxy-cyclopentyl)-acetamide] are 13.9 nM, 482 nM and 355 nM.
In the same order, the values of `NC(=O)CC(=O)N[C@H]1CC[C@H](CCN2CCN(c3noc4ccc(F)cc34)CC2)CC1` [Example 17, N-trans-(4-{2-[4-(5-Fluoro-benzo[d]isoxazol-3-yl)-piperazin-1-yl]-ethyl}-cyclohexyl)-malonamide] are 1.83 nM, 25.4 nM and 592 nM.
Take `COc1ccc(C(=O)N[C@H]2CC[C@H](CCN3CCN(c4noc5cc(F)c(Cl)cc45)CC3)CC2)s1` [Example 85, 5-Methoxy-thiophene-2-carboxylic acid N-trans-(4-{2-[4-(5-chloro-6-fluoro-benzo[d]isoxazol-3-yl)-piperazin-1-yl]-ethyl}-cyclohexyl)-amide]: the Ki worked out at 8.2 nM in test [1], 7.47 nM in test [2] and 368 nM in test [3].
In the same order, the values of `O=C(N[C@H]1CC[C@H](CCN2CCN(c3noc4cc(Cl)ccc34)CC2)CC1)C(O)C(F)(F)F` (mixture of isomers) [Example 33, N-trans-(4-{2-[4-(6-Chloro-benzo[d]isoxazol-3-yl)-piperazin-1-yl]-ethyl}-cyclohexyl)-rac-3,3,3-trifluoro-2-hydroxy-propionamide] are 14.8 nM, 12.4 nM and 362 nM.
For the compound `COC1CCCC(C(=O)N[C@H]2CC[C@H](CCN3CCN(c4noc5ccc(F)cc45)CC3)CC2)C1` (stereo partly drawn) [Example 16, 3-Methoxy-cyclohexanecarboxylic acid N-trans-(4-{2-[4-(5-fluoro-benzo[d]isoxazol-3-yl)-piperazin-1-yl]-ethyl}-cyclohexyl)-amide], the results for the Ki in test [1], in test [2] and in test [3] were 21.4 nM, 14.4 nM and 1440 nM, respectively.
The matching figures for `COC(C)CC(=O)N[C@H]1CC[C@H](CCN2CCN(c3noc4cc(Cl)ccc34)CC2)CC1` (stereo partly drawn) [Example 37, N-trans-(4-{2-[4-(6-Chloro-benzo[d]isoxazol-3-yl)-piperazin-1-yl]-ethyl}-cyclohexyl)-3-methoxy-butyramide]: 14.9 nM, 7.32 nM and 350 nM.
The matching figures for `COCCC(=O)N[C@H]1CC[C@H](CCN2CCN(c3noc4cc(C)ccc34)CC2)CC1` [Example 98, 3-Methoxy-N-trans-(4-{2-[4-(6-methyl-benzo[d]isoxazol-3-yl)-piperazin-1-yl]-ethyl}-cyclohexyl)-propionamide]: 7.42 nM, 5.21 nM and 222 nM.
The matching figures for `CO[C@H]1CC[C@H](CC(=O)N[C@H]2CC[C@H](CCN3CCN(c4noc5cc(F)c(Cl)cc45)CC3)CC2)CC1` [Example 88, N-trans-(4-{2-[4-(5-Chloro-6-fluoro-benzo[d]isoxazol-3-yl)-piperazin-1-yl]-ethyl}-cyclohexyl)-2-trans-(4-methoxy-cyclohexyl)-acetamide]: 31.1 nM, 16.7 nM and 11200 nM.
In the case of `COC1(C)CCC(CC(=O)N[C@H]2CC[C@H](CCN3CCN(c4noc5cc(Cl)ccc45)CC3)CC2)CC1` (stereo partly drawn) [Example 39, N-trans-(4-{2-[4-(6-Chloro-benzo[d]isoxazol-3-yl)-piperazin-1-yl]-ethyl}-cyclohexyl)-2-(4-methoxy-4-methyl-cyclohexyl)-acetamide], the Ki stood at 23.4 nM in test [1], 4.14 nM in test [2] and 3800 nM in test [3].
The matching figures for `O=C(CC1CCOCC1)N[C@H]1CC[C@H](CCN2CCN(c3noc4cc(Cl)c(Cl)cc34)CC2)CC1` [Example 97, N-trans-(4-{2-[4-(5,6-Dichloro-benzo[d]isoxazol-3-yl)-piperazin-1-yl]-ethyl}-cyclohexyl)-2-(tetrahydro-pyran-4-yl)-acetamide]: 9.45 nM, 30.7 nM and 11600 nM.
`CC(C)(O)CC(=O)N[C@H]1CC[C@H](CCN2CCN(c3noc4cc(F)c(F)cc34)CC2)CC1` [Example 64, N-trans-(4-{2-[4-(5,6-Difluoro-benzo[d]isoxazol-3-yl)-piperazin-1-yl]-ethyl}-cyclohexyl)-3-hydroxy-3-methyl-butyramide]: the Ki in test [1] was 10.1 nM; in test [2], 11.8 nM; in test [3], 598 nM.
In the same order, the values of `O=C(N[C@H]1CC[C@H](CCN2CCN(c3noc4cc(F)c(Cl)cc34)CC2)CC1)C1CCC1` [Example 92, Cyclobutanecarboxylic acid N-trans-(4-{2-[4-(5-chloro-6-fluoro-benzo[d]isoxazol-3-yl)-piperazin-1-yl]-ethyl}-cyclohexyl)-amide] are 12.4 nM, 11.6 nM and 4070 nM.
The matching figures for `CO[C@H]1CC[C@H](CC(=O)N[C@H]2CC[C@H](CCN3CCN(c4noc5cc(Cl)ccc45)CC3)CC2)C1` (relative stereo) [Example 36, N-trans-(4-{2-[4-(6-Chloro-benzo[d]isoxazol-3-yl)-piperazin-1-yl]-ethyl}-cyclohexyl)-2-trans-(3-methoxy-cyclopentyl)-acetamide]: 10.1 nM, 2.74 nM and 683 nM.
The matching figures for `O=C(CC1CCCCO1)N[C@H]1CC[C@H](CCN2CCN(c3noc4cc(Cl)ccc34)CC2)CC1` (stereo partly drawn) [Example 35, N-trans-(4-{2-[4-(6-Chloro-benzo[d]isoxazol-3-yl)-piperazin-1-yl]-ethyl}-cyclohexyl)-2-(tetrahydro-pyran-2-yl)-acetamide]: 17.2 nM, 4.8 nM and 899 nM.
As to `COC1CCC(C(=O)N[C@H]2CC[C@H](CCN3CCN(c4noc5ccc(F)cc45)CC3)CC2)CC1` (stereo partly drawn) [Example 13, 4-Methoxy-cyclohexanecarboxylic acid N-trans-(4-{2-[4-(5-fluoro-benzo[d]isoxazol-3-yl)-piperazin-1-yl]-ethyl}-cyclohexyl)-amide], the Ki in test [1] amounted to 41.4 nM; in test [2], 35.1 nM; in test [3], 3440 nM.
In the same order, the values of `CC(C)(O)CC(=O)N[C@H]1CC[C@H](CCN2CCN(c3noc4ccc(F)cc34)CC2)CC1` [Example 11, N-trans-(4-{2-[4-(5-Fluoro-benzo[d]isoxazol-3-yl)-piperazin-1-yl]-ethyl}-cyclohexyl)-3-hydroxy-3-methyl-butyramide] are 4.82 nM, 24 nM and 482 nM.
The matching figures for `O=C(CC1COCCO1)N[C@H]1CC[C@H](CCN2CCN(c3noc4cc(F)c(Cl)cc34)CC2)CC1` (stereo partly drawn) [Example 76, N-trans-(4-{2-[4-(5-Chloro-6-fluoro-benzo[d]isoxazol-3-yl)-piperazin-1-yl]-ethyl}-cyclohexyl)-2-[1,4]dioxan-2-yl-acetamide]: 19.9 nM, 20.4 nM and 632 nM.
